Data: patent US20240383886A1, “Protein Tyrosine Phosphatase Degraders and Methods of Use Thereof” (CALICO LIFE SCIENCES LLC, priority 2019, published 2024)

What was measured:
PTPN2 [1] = target: T1, PTPN2 (Homo sapiens, UniProt P17706); assay: HiBiT-Degradation 293T.109 PTPN2 (Nano-Glo HiBiT Lytic Assay); type: cell-based; settings: 293T.109 (HiBiT-PTPN2) cells, 24.0 hours
T1 construct: expressed in transfected cells; host or cells: 293T (293T.109 HiBiT-PTPN2 line; parental 293T WT from ATCC)
T1 sequence (P17706 1-415): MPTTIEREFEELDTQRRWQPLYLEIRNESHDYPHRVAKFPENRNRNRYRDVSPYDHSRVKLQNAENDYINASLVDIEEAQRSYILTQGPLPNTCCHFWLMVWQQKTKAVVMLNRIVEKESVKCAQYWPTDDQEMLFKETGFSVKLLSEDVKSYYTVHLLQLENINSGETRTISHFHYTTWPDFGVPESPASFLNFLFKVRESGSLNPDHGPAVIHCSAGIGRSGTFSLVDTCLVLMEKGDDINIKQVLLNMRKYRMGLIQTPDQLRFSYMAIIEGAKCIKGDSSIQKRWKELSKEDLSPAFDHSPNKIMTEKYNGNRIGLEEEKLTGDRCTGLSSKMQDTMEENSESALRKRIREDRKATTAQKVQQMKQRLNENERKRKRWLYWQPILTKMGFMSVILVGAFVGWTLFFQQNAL
Method in brief: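 Luminescence from a lytic HiBiT read gave PTPN2 levels after 24 h compound exposure at 37° C. Compounds were tested at 11 half-log points from a 10 μM top concentration, in duplicate. The cells were 293T engineered with an N-terminal HiBiT–PTPN2 fusion, plated at 5000 per well, with untreated wells as negative control and no-reagent wells as positive control.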

PTPN2 [2] = assay: HiBiT-Degradation B16F10.4 PTPN2; type: cell-based; settings: B16F10.4 cells, 24.0 hours

| SMILES | DC50 (PTPN2 [1]) [nM] | DC50 (PTPN2 [2]) [nM] |
| --- | --- | --- |
| Cn1c(=O)n(C2CCC(=O)NC2=O)c2ccc(C3CCN(C(=O)CN4CC[C@H](COc5ccc6cc(O)c(N7CC(=O)NS7(=O)=O)c(F)c6c5)C4)CC3)cc21 (stereo partly drawn) [Example 138, 3-[5-[1-[2-[(3S)-3-[[8-fluoro-6-hydroxy-7-(1,1,4-trioxo-1,2,5-thiadiazolidin-2-yl)-2-naphthyl]oxymethyl]pyrrolidin-1-yl]acetyl]-4-piperidyl]-3-methyl-2-oxo-benzimidazol-1-yl]piperidine-2,6-dione] | 50 to 200 | 50 to 200 |
| Cn1c(=O)n(C2CCC(=O)NC2=O)c2ccc(C3CCN(CCN4CCC[C@@H](COc5ccc6cc(O)c(N7CC(=O)NS7(=O)=O)c(F)c6c5)C4)CC3)cc21 (stereo partly drawn) [Example 137, 3-[5-[1-[2-[(3R)-3-[[8-fluoro-6-hydroxy-7-(1,1,4-trioxo-1,2,5-thiadiazolidin-2-yl)-2-naphthyl]oxymethyl]-1-piperidyl]ethyl]-4-piperidyl]-3-methyl-2-oxo-benzimidazol-1-yl]piperidine-2,6-dione] | 50 to 200 | 50 to 200 |
| Cn1c(=O)n(C2CCC(=O)NC2=O)c2ccc(C3CCN(CC(=O)N4CC[C@@H](COc5ccc6cc(O)c(N7CC(=O)NS7(=O)=O)c(F)c6c5)C4)CC3(F)F)cc21 (stereo partly drawn) [Example 162, 3-[5-[3,3-difluoro-1-[2-[(3R)-3-[[8-fluoro-6-hydroxy-7-(1,1,4-trioxo-1,2,5-thiadiazolidin-2-yl)-2-naphthyl]oxymethyl]pyrrolidin-1-yl]-2-oxo-ethyl]-4-piperidyl]-3-methyl-2-oxo-benzimidazol-1-yl]piperidine-2,6-dione] | 10 to 50 | 50 to 200 |
| Cn1c(=O)n(C2CCC(=O)NC2=O)c2ccc(C3=CCC(CNC(=O)c4ccc5c(F)c(N6CC(=O)NS6(=O)=O)c(O)cc5c4)CC3)cc21 (stereo not shown) [Example 102] | 200 to 1000 | 200 to 1000 |
| Cn1c(=O)n(C2CCC(=O)NC2=O)c2ccc(C3CCN(C(=O)Cn4cc(-c5ccc6c(F)c(N7CC(=O)NS7(=O)=O)c(O)cc6c5)cn4)CC3)cc21 (stereo not shown) [Example 74, 3-[5-[1-[2-[4-[5-fluoro-7-hydroxy-6-(1,1,4-trioxo-1,2,5-thiadiazolidin-2-yl)-2-naphthyl]pyrazol-1-yl]acetyl]-4-piperidyl]-3-methyl-2-oxo-benzimidazol-1-yl]piperidine-2,6-dione] | < 10 | 50 to 200 |
| Cn1c(=O)n(C2CCC(=O)NC2=O)c2ccc(C3CCN(Cc4nnc(-c5ccc6c(F)c(N7CC(=O)NS7(=O)=O)c(O)cc6c5)o4)CC3)cc21 (stereo not shown) [Example 146, 3-[5-[1-[[5-[5-fluoro-7-hydroxy-6-(1,1,4-trioxo-1,2,5-thiadiazolidin-2-yl)-2-naphthyl]-1,3,4-oxadiazol-2-yl]methyl]-4-piperidyl]-3-methyl-2-oxo-benzimidazol-1-yl]piperidine-2,6-dione] | 10 to 50 | 200 to 1000 |
| Cn1c(=O)n(C2CCC(=O)NC2=O)c2ccc(C3CCN([C@H](CO)C(=O)Nc4ccc5c(F)c(N6CC(=O)NS6(=O)=O)c(O)cc5c4)CC3)cc21 (stereo partly drawn) [Example 183, (2R)—N-(6-(1,1-dioxido-4-oxo-1,2,5-thiadiazolidin-2-yl)-5-fluoro-7-hydroxynaphthalen-2-yl)-2-(4-(1-(2,6-dioxopiperidin-3-yl)-3-methyl-2-oxo-2,3-dihydro-1H-benzo[d]imidazol-5-yl)piperidin-1-yl)-3-hydroxypropanamide] | 10 to 50 | 10 to 50 |
| O=C(C=Cc1ccc2cc(O)c(N3CC(=O)NS3(=O)=O)c(F)c2c1)NC1CCN(C(=O)COc2cccc3c2CN(C2CCC(=O)NC2=O)C3=O)CC1 (stereo not shown) [Example 11, 3-(7-(1,1-dioxido-4-oxo-1,2,5-thiadiazolidin-2-yl)-8-fluoro-6-hydroxynaphthalen-2-yl)-N-(1-(2-((2-(2,6-dioxopiperidin-3-yl)-1-oxoisoindolin-4-yl)oxy)acetyl)piperidin-4-yl)acrylamide] | 200 to 1000 | 200 to 1000 |
| Cn1c(=O)n(C2CCC(=O)NC2=O)c2ccc(C3CCN(C(=O)c4ccc5c(F)c(N6CC(=O)NS6(=O)=O)c(O)cc5c4)CC3)cc21 (stereo not shown) [Example 71] | ≥ 1000 | ≥ 1000 |
| Cn1c(=O)n(C2CCC(=O)NC2=O)c2ccc(C3CCN(CCN4CCC(c5ccc6cc(O)c(N7CC(=O)NS7(=O)=O)c(F)c6c5)CC4)CC3)cc21 (stereo not shown) [Example 123, 3-[5-[1-[2-[4-[8-fluoro-6-hydroxy-7-(1,1,4-trioxo-1,2,5-thiadiazolidin-2-yl)-2-naphthyl]-1-piperidyl]ethyl]-4-piperidyl]-3-methyl-2-oxo-benzimidazol-1-yl]piperidine-2,6-dione] | 10 to 50 | 50 to 200 |
| Cn1c(=O)n(C2CCC(=O)NC2=O)c2ccc(N3CCC(CC(=O)N4CC=C(c5ccc6cc(O)c(N7CC(=O)NS7(=O)=O)c(F)c6c5)C4)CC3)cc21 (stereo not shown) [Example 103, 3-[5-[4-[2-[3-[8-fluoro-6-hydroxy-7-(1,1,4-trioxo-1,2,5-thiadiazolidin-2-yl)-2-naphthyl]-2,5-dihydropyrrol-1-yl]-2-oxo-ethyl]-1-piperidyl]-3-methyl-2-oxo-benzimidazol-1-yl]piperidine-2,6-dione] | 200 to 1000 | 50 to 200 |
| Cn1c(=O)n(C2CCC(=O)NC2=O)c2ccc(C3CCN(C(=O)C(=O)Nc4ccc5c(F)c(N6CC(=O)NS6(=O)=O)c(O)cc5c4)CC3)cc21 (stereo not shown) [Example 87, 2-[4-[1-(2,6-dioxo-3-piperidyl)-3-methyl-2-oxo-benzimidazol-5-yl]-1-piperidyl]-N-[5-fluoro-7-hydroxy-6-(1,1,4-trioxo-1,2,5-thiadiazolidin-2-yl)-2-naphthyl]-2-oxo-acetamide] | 10 to 50 | 10 to 50 |
| O=C1CCC(N2C(=O)c3cccc(NCc4cn(CCC(=O)Nc5ccc6c(Cl)c(N7CC(=O)NS7(=O)=O)c(O)cc6c5)nn4)c3C2=O)C(=O)N1 (stereo not shown) [Example 69] | ≥ 1000 | ≥ 1000 |
| Cn1c(=O)n(C2CCC(=O)NC2=O)c2ccc(C3CCN(CC(=O)N4CC[C@H](COc5ccc6cc(O)c(N7CC(=O)NS7(=O)=O)c(F)c6c5)C4)CC3)cc21 (stereo partly drawn) [Example 133, 3-[5-[1-[2-[(3S)-3-[[8-fluoro-6-hydroxy-7-(1,1,4-trioxo-1,2,5-thiadiazolidin-2-yl)-2-naphthyl]oxymethyl]pyrrolidin-1-yl]-2-oxo-ethyl]-4-piperidyl]-3-methyl-2-oxo-benzimidazol-1-yl]piperidine-2,6-dione] | 10 to 50 | 50 to 200 |
| CC(C)(Nc1cccc2c1C(=O)N(C1CCC(=O)NC1=O)C2=O)c1cn(CCC(=O)Nc2ccc3c(F)c(N4CC(=O)NS4(=O)=O)c(O)cc3c2)nn1 (stereo not shown) [Example 18, N-(6-(1,1-dioxido-4-oxo-1,2,5-thiadiazolidin-2-yl)-5-fluoro-7-hydroxynaphthalen-2-yl)-3-(4-(2-((2-(2,6-dioxopiperidin-3-yl)-1,3-dioxoisoindolin-4-yl)amino)propan-2-yl)-1H-1,2,3-triazol-1-yl)propanamide] | 200 to 1000 | ≥ 1000 |
| O=C1CCC(N2Cc3c(OCC(=O)N4CCC(C(=O)N5CC(Oc6ccc7cc(O)c(N8CC(=O)NS8(=O)=O)c(F)c7c6)C5)CC4)cccc3C2=O)C(=O)N1 (stereo not shown) [Example 32] | 200 to 1000 | 200 to 1000 |
| Cn1nc(C2CCC(=O)NC2=O)c2ccc(N3CCC(O)(CC(=O)Nc4ccc5c(F)c(N6CC(=O)NS6(=O)=O)c(O)cc5c4)CC3)cc21 (stereo not shown) [Example 83, 2-[1-[3-(2,6-dioxo-3-piperidyl)-1-methyl-indazol-6-yl]-4-hydroxy-4-piperidyl]-N-[5-fluoro-7-hydroxy-6-(1,1,4-trioxo-1,2,5-thiadiazolidin-2-yl)-2-naphthyl]acetamide] | < 10 | 10 to 50 |
| O=C1CCC(N2C(=O)c3cccc(NCC(=O)N4CCC(C(=O)NCCOc5ccc6cc(O)c(N7CC(=O)NS7(=O)=O)c(F)c6c5)CC4)c3C2=O)C(=O)N1 (stereo not shown) [Example 1, N-(2-((7-(1,1-dioxido-4-oxo-1,2,5-thiadiazolidin-2-yl)-8-fluoro-6-hydroxynaphthalen-2-yl)oxy)ethyl)-1-((2-(2,6-dioxopiperidin-3-yl)-1,3-dioxoisoindolin-4-yl)glycyl)piperidine-4-carboxamide] | 200 to 1000 | ≥ 1000 |
| Cn1c(=O)n(C2CCC(=O)NC2=O)c2ccc(C3CCN(CCS(=O)(=O)N4CC=C(c5ccc6cc(O)c(N7CC(=O)NS7(=O)=O)c(F)c6c5)C4)CC3)cc21 (stereo not shown) [Example 107, 3-(5-(1-(2-((3-(7-(1,1-dioxido-4-oxo-1,2,5-thiadiazolidin-2-yl)-8-fluoro-6-hydroxynaphthalen-2-yl)-2,5-dihydro-1H-pyrrol-1-yl)sulfonyl)ethyl)piperidin-4-yl)-3-methyl-2-oxo-2,3-dihydro-1H-benzo[d]imidazol-1-yl)piperidine-2,6-dione] | 50 to 200 | 50 to 200 |
| Cn1c(=O)n(C2CCC(=O)NC2=O)c2ccc(-c3ccc(CC(=O)Nc4ccc5c(F)c(N6CC(=O)NS6(=O)=O)c(O)cc5c4)nc3)cc21 (stereo not shown) [Example 175, N-(6-(1,1-dioxido-4-oxo-1,2,5-thiadiazolidin-2-yl)-5-fluoro-7-hydroxynaphthalen-2-yl)-2-(5-(1-(2,6-dioxopiperidin-3-yl)-3-methyl-2-oxo-2,3-dihydro-1H-benzo[d]imidazol-5-yl)pyridin-2-yl)acetamide] | 10 to 50 | 50 to 200 |
